From PubChem BioAssay (NCI)
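Results reflect a 48-hour exposure of cells in 96-well plates to compound at five concentrations. At the TGI there is no net growth.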

Assays:
Assay in all cases: NCI anticancer screen, dose series, 48 h
MOLT-4 leukemia = tested on: MOLT-4 leukemia
EKVX NSCLC = tested on: EKVX NSCLC
IGROV1 ovarian = tested on: IGROV1 ovarian
SNB-19 CNS = tested on: SNB-19 CNS
HOP-62 NSCLC = tested on: HOP-62 NSCLC
HT29 colon = tested on: HT29 colon
NCI/ADR-RES ovarian = tested on: NCI/ADR-RES ovarian
SF-295 CNS = tested on: SF-295 CNS
MDA-N = tested on: MDA-N
T-47D breast = tested on: T-47D breast
MALME-3M melanoma = tested on: MALME-3M melanoma
SF-539 CNS = tested on: SF-539 CNS
786-0 renal = tested on: 786-0 renal
NCI-H226 lung = tested on: NCI-H226 lung
DU-145 prostate = tested on: DU-145 prostate
NCI-H460 lung = tested on: NCI-H460 lung
UO-31 renal = tested on: UO-31 renal
SW-620 colon = tested on: SW-620 colon
HCT-116 colon = tested on: HCT-116 colon
ACHN renal = tested on: ACHN renal
CCRF-CEM leukemia = tested on: CCRF-CEM leukemia
LOX IMVI melanoma = tested on: LOX IMVI melanoma
SNB-75 CNS = tested on: SNB-75 CNS
RPMI-8226 leukemia = tested on: RPMI-8226 leukemia
OVCAR-3 ovarian = tested on: OVCAR-3 ovarian
SK-OV-3 ovarian = tested on: SK-OV-3 ovarian
OVCAR-8 ovarian = tested on: OVCAR-8 ovarian
MDA-MB-435 = tested on: MDA-MB-435
SK-MEL-5 melanoma = tested on: SK-MEL-5 melanoma
M14 melanoma = tested on: M14 melanoma
HS 578T breast = tested on: HS 578T breast
MCF7 breast = tested on: MCF7 breast
BT-549 breast = tested on: BT-549 breast
HCT-15 colon = tested on: HCT-15 colon
UACC-62 melanoma = tested on: UACC-62 melanoma
MDA-MB-231 breast = tested on: MDA-MB-231 breast
K-562 leukemia = tested on: K-562 leukemia
OVCAR-4 ovarian = tested on: OVCAR-4 ovarian
U251 CNS = tested on: U251 CNS
TK-10 renal = tested on: TK-10 renal
PC-3 prostate = tested on: PC-3 prostate
OVCAR-5 ovarian = tested on: OVCAR-5 ovarian
A549 NSCLC = tested on: A549 NSCLC
RXF 393 renal = tested on: RXF 393 renal
NCI-H23 lung = tested on: NCI-H23 lung
SK-MEL-2 melanoma = tested on: SK-MEL-2 melanoma
SF-268 CNS = tested on: SF-268 CNS
SN12C renal = tested on: SN12C renal
SK-MEL-28 melanoma = tested on: SK-MEL-28 melanoma
UACC-257 melanoma = tested on: UACC-257 melanoma
COLO 205 colon = tested on: COLO 205 colon
HOP-92 NSCLC = tested on: HOP-92 NSCLC
NCI-H522 lung = tested on: NCI-H522 lung
KM12 colon = tested on: KM12 colon
A498 renal = tested on: A498 renal
CAKI-1 renal = tested on: CAKI-1 renal

Measured: TGI

CC(NC(=O)NC(C)(C)C)NC(=O)C(N)CC(=O)O (stereo unspecified)
> 100 µM: all assays above
